Results taken from patent US7923561B2 (Hoffmann-La Roche Inc., priority 2006, dated 2011).

Test system: not given
Test: not given
Details: not given

| melting point | Molecule |
| --- | --- |
| 105 °C | Cc1nc(-c2cccc3nc(N[C@@H]4CCc5ccccc54)ccc23)no1 [Example 79, (R)-Indan-1-yl-[5-(5-methyl-[1,2,4]oxadiazol-3-yl)-quinolin-2-yl]-amine] |
| 145 °C | O=C(NCc1cccc2nc(N[C@@H]3CCc4ccccc43)ccc12)c1ccc(F)cc1 [Example 80, 4-Fluoro-N-[2-((R)-indan-1-ylamino)-quinolin-5-ylmethyl]-benzamide] |
| 184 °C | ON=C(c1ccc(F)cc1)c1cccc2nc(N[C@@H]3CCc4ccccc43)ccc12 [Example 89, (4-Fluoro-phenyl)-[2-((R)-indan-1-ylamino)-quinolin-5-yl]-methanone oxime] |
| 175.5 °C | ON=C(c1ccccc1)c1cccc2nc(N[C@@H]3CCc4ccccc43)ccc12 [Example 91, [2-((R)-Indan-1-ylamino)-quinolin-5-yl]-phenyl-methanone oxime] |
| 194 °C | ON=C(c1ccc(Cl)cc1)c1cccc2nc(N[C@@H]3CCc4ccccc43)ccc12 [Example 92, (4-Chloro-phenyl)-[2-((R)-indan-1-ylamino)-quinolin-5-yl]-methanone oxime] |
| 179.5 °C | ON=C(c1cccc(F)c1)c1cccc2nc(N[C@@H]3CCc4ccccc43)ccc12 [Example 96, (3-Fluoro-phenyl)-[2-((R)-indan-1-ylamino)-quinolin-5-yl]-methanone oxime] |
| 120.5 °C | ON=C(c1cc(F)cc(F)c1)c1cccc2nc(N[C@@H]3CCc4ccccc43)ccc12 [Example 101, (3,5-Difluoro-phenyl)-[2-((R)-indan-1-ylamino)-quinolin-5-yl]-methanone oxime] |

Target: T1, recombinant human 5-HT5A receptor (Homo sapiens, UniProt P47898)
T1 construct: expressed in transfected cells; host or cells: HEK-EBNA (Human Embryonic Kidney-EBNA) cells, transient cDNA expression, membranes
T1 sequence (P47898 whole entry): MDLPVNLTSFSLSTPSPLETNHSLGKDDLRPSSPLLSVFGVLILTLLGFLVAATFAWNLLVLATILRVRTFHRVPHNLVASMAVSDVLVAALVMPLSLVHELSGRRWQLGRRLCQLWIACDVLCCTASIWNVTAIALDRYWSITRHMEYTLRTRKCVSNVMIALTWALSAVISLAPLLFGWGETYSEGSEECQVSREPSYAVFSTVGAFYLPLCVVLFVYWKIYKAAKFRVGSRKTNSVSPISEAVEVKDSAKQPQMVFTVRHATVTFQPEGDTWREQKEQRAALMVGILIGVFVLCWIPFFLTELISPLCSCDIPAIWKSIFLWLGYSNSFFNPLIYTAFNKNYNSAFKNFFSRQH
Test: [3H]LSD radioligand binding assay, membranes of HEK-EBNA cells transiently expressing 5-HT5A receptors
Details: [3H]LSD approx. 1 nM, SPA beads, 120 min at room temperature; Ki from IC50 by Cheng-Prussoff equation
Experimental: A [^3H]LSD radioligand binding assay was used to determine the affinity of the compounds for the recombinant human 5-HT5A receptor, in membranes from transiently (cDNA) expressed 5-HT5A receptors in Human Embryonic Kidney-EBNA (HEK-EBNA) cells. Assay buffer consisted of Tris (50 mM) buffer containing 1 mM EGTA, 10 mM MgCl2 (pH 7.4) and 10 μM pargyline. The binding assay was carried out in 96-well-plates in the presence of [^3H]LSD (approximately 1 nM), approximately 2 μg/well of membrane protein, and 0.5 mg of Ysi-poly-1-lysine SPA beads in a final volume of 200 μl of buffer. Non-specific binding was defined using methiothepin 2 μM. Compounds were tested at 10 concentrations. All assays were conducted in duplicate and repeated at least two times. Assay plates were incubated for 120 min at room temperature before centrifugation. Bound ligand was determined using a Packard Topcount scintillation counter. IC50 values were calculated using a non-linear curve fitting program and Ki values calculated using the Cheng-Prussoff equation.

| Ki | Molecule |
| --- | --- |
| 22.5 nM | c1ccc2c(c1)CC[C@H]2Nc1ccc2c(NCc3ncc[nH]3)cccc2n1 [Example 49, N5-(1H-Imidazol-2-ylmethyl)-N2-(R)-indan-1-yl-quinoline-2,5-diamine] |
| 13.6 nM | c1ccc2c(c1)CC[C@H]2Nc1ccc2c(NCc3cc[nH]n3)cccc2n1 [Example 50, N2-(R)-Indan-1-yl-N5-(1H-pyrazol-3-ylmethyl)-quinoline-2,5-diamine] |
| 25.6 nM | Cn1cc(CNc2cccc3nc(N[C@@H]4CCc5ccccc54)ccc23)cn1 [Example 55, N2-(R)-Indan-1-yl-N5-(1-methyl-1H-pyrazol-4-ylmethyl)-quinoline-2,5-diamine] |
| 1.65 nM | c1ccc2c(c1)CC[C@H]2Nc1ccc2c(NCc3cccc4[nH]ccc34)cccc2n1 [Example 56, N2-(R)-Indan-1-yl-N5-(1H-indol-4-ylmethyl)-quinoline-2,5-diamine] |
| 2.36 nM | COc1cccc2c1C(Nc1ccc3c(NCc4c[nH]cn4)cccc3n1)CC2 (stereo not shown) [Example 58, N5-(1H-Imidazol-4-ylmethyl)-N2-(7-methoxy-indan-1-yl)-quinoline-2,5-diamine] |
| 229 nM | c1ccc(-c2cccc3nc(N[C@@H]4CCc5ccccc54)ccc23)cc1 [Example 63, (R)-Indan-1-yl-(5-phenyl-quinolin-2-yl)-amine] |
| 6.03 nM | CN(C)CCOc1ccccc1CNc1cccc2nc(N[C@@H]3CCc4ccccc43)ccc12 [Example 64, N5-[2-(2-Dimethylamino-ethoxy)-benzyl]-N2-(R)-indan-1-yl-quinoline-2,5-diamine] |
| 173 nM | Cc1ccccc1-c1cccc2nc(N[C@@H]3CCc4ccccc43)ccc12 [Example 65, (R)-Indan-1-yl-(5-o-tolyl-quinolin-2-yl)-amine] |
| 320 nM | c1cncc(-c2cccc3nc(N[C@@H]4CCc5ccccc54)ccc23)c1 [Example 66, (R)-Indan-1-yl-(5-pyridin-3-yl-quinolin-2-yl)-amine] |
| 5.61 nM | c1ccc2c(c1)CC[C@H]2Nc1ccc2c(Nc3cccc4cc[nH]c34)cccc2n1 [Example 69, N2-(R)-Indan-1-yl-N5-(1H-indol-7-yl)-quinoline-2,5-diamine] |
| 2.94 nM | c1ccc2c(c1)CC[C@H]2Nc1ccc2c(Nc3cccc4[nH]ccc34)cccc2n1 [Example 71, N2-(R)-Indan-1-yl-N5-(1H-indol-4-yl)-quinoline-2,5-diamine] |
| 6 nM | c1ccc2c(c1)CC[C@H]2Nc1ccc2c(Nc3ccc4[nH]ccc4c3)cccc2n1 [Example 72, N2-(R)-Indan-1-yl-N5-(1H-indol-5-yl)-quinoline-2,5-diamine] |
| 4.7 nM | c1ccc2c(c1)CC[C@H]2Nc1ccc2c(Nc3ccc4cc[nH]c4c3)cccc2n1 [Example 73, N2-(R)-Indan-1-yl-N5-(1H-indol-6-yl)-quinoline-2,5-diamine] |
| 41.7 nM | c1ccc2c(c1)CC[C@H]2Nc1ccc2c(-c3cccc4[nH]ccc34)cccc2n1 [Example 74, (R)-Indan-1-yl-[5-(1H-indol-4-yl)-quinolin-2-yl]-amine] |
| 127 nM | Clc1ccccc1-c1cccc2nc(N[C@@H]3CCc4ccccc43)ccc12 [Example 75, [5-(2-Chloro-phenyl)-quinolin-2-yl]-(R)-indan-1-yl-amine] |
| 6.38 nM | Fc1ccc(Nc2cccc3nc(N[C@@H]4CCc5ccccc54)ccc23)cc1 [Example 77, N5-(4-Fluoro-phenyl)-N2-(R)-indan-1-yl-quinoline-2,5-diamine] |
| 91.6 nM | O=C(Nc1cccc2nc(N[C@@H]3CCc4ccccc43)ccc12)c1ccc(F)cc1 [Example 78, 4-Fluoro-N-[2-((R)-indan-1-ylamino)-quinolin-5-yl]-benzamide] |
| 134 nM | Cc1nc(-c2cccc3nc(N[C@@H]4CCc5ccccc54)ccc23)no1 [Example 79, (R)-Indan-1-yl-[5-(5-methyl-[1,2,4]oxadiazol-3-yl)-quinolin-2-yl]-amine] |

| Ki | Molecule |
| --- | --- |
| 34.4 nM | O=C(NCc1cccc2nc(N[C@@H]3CCc4ccccc43)ccc12)c1ccc(F)cc1 [Example 80, 4-Fluoro-N-[2-((R)-indan-1-ylamino)-quinolin-5-ylmethyl]-benzamide] |
| 151 nM | Fc1ccc(CNCc2cccc3nc(N[C@@H]4CCc5ccccc54)ccc23)cc1 [Example 81, {5-[(4-Fluoro-benzylamino)-methyl]-quinolin-2-yl}-(R)-indan-1-yl-amine] |
| 7.82 nM | N=C(c1ccc(F)cc1)c1cccc2nc(N[C@@H]3CCc4ccccc43)ccc12 [Example 82, {5-[(4-Fluoro-phenyl)-imino-methyl]-quinolin-2-yl}-(R)-indan-1-yl-amine] |
| 11.5 nM | O=C(c1ccc(F)cc1)c1cccc2nc(N[C@@H]3CCc4ccccc43)ccc12 [Example 83, (4-Fluoro-phenyl)-[2-((R)-indan-1-ylamino)-quinolin-5-yl]-methanone] |
| 17.1 nM | N=C(c1ccccc1)c1cccc2nc(N[C@@H]3CCc4ccccc43)ccc12 [Example 84, [5-(Imino-phenyl-methyl)-quinolin-2-yl]-(R)-indan-1-yl-amine] |
| 24.1 nM | O=C(c1ccccc1)c1cccc2nc(N[C@@H]3CCc4ccccc43)ccc12 [Example 85, [2-((R)-Indan-1-ylamino)-quinolin-5-yl]-phenyl-methanone] |
| 10 nM | O=S(=O)(Nc1ccc(F)cc1)Nc1cccc2nc(N[C@@H]3CCc4ccccc43)ccc12 [Example 86, N-{2-[(1R)-2,3-dihydro-1H-inden-1-ylamino]quinolin-5-yl}-N′-(4-fluorophenyl)sulfamide] |
| 56.2 nM | Fc1cc(F)cc(CNc2cccc3nc(NC4Cc5ccccc5C4)ccc23)c1 [Example 87, N5-(3,5-Difluoro-benzyl)-N2-indan-2-yl-quinoline-2,5-diamine] |
| 44.3 nM | c1ccc2c(c1)CC(Nc1ccc3c(NCc4cccc5[nH]ccc45)cccc3n1)C2 [Example 88, N2-Indan-2-yl-N5-(1H-indol-4-ylmethyl)-quinoline-2,5-diamine] |
| 2.3 nM | ON=C(c1ccc(F)cc1)c1cccc2nc(N[C@@H]3CCc4ccccc43)ccc12 [Example 89, (4-Fluoro-phenyl)-[2-((R)-indan-1-ylamino)-quinolin-5-yl]-methanone oxime] |
| 1.55 nM | ON=C(c1ccccc1)c1cccc2nc(N[C@@H]3CCc4ccccc43)ccc12 [Example 91, [2-((R)-Indan-1-ylamino)-quinolin-5-yl]-phenyl-methanone oxime] |
| 5.48 nM | ON=C(c1ccc(Cl)cc1)c1cccc2nc(N[C@@H]3CCc4ccccc43)ccc12 [Example 92, (4-Chloro-phenyl)-[2-((R)-indan-1-ylamino)-quinolin-5-yl]-methanone oxime] |
| 117 nM | O=C(c1cccc(F)c1)c1cccc2nc(N[C@@H]3CCc4ccccc43)ccc12 [Example 94, (3-Fluoro-phenyl)-[2-((R)-indan-1-ylamino)-quinolin-5-yl]-methanone] |
| 1.22 nM | ON=C(c1cccc(F)c1)c1cccc2nc(N[C@@H]3CCc4ccccc43)ccc12 [Example 96, (3-Fluoro-phenyl)-[2-((R)-indan-1-ylamino)-quinolin-5-yl]-methanone oxime] |
| 264 nM | O=C(c1cc(F)cc(F)c1)c1cccc2nc(N[C@@H]3CCc4ccccc43)ccc12 [Example 100, (3,5-Difluoro-phenyl)-[2-((R)-indan-1-ylamino)-quinolin-5-yl]-methanone] |
| 7.7 nM | ON=C(c1cc(F)cc(F)c1)c1cccc2nc(N[C@@H]3CCc4ccccc43)ccc12 [Example 101, (3,5-Difluoro-phenyl)-[2-((R)-indan-1-ylamino)-quinolin-5-yl]-methanone oxime] |
| 49.7 nM | (4-Chloro-phenyl)-[2-((R)-indan-1-ylamino)-quinolin-5-yl]-methanone [Example 90] |

| Molecule | Ki |
| --- | --- |
| Cc1nc(CNc2cccc3nc(N[C@@H]4CCc5ccccc54)ccc23)c[nH]1 [Example 53] | 7.57 nM |
| Cc1cc(Nc2cccc3nc(N[C@@H]4CCc5ccccc54)ccc23)n(C)n1 [Example 76, N5-(2,5-Dimethyl-2H-pyrazol-3-yl)-N2-(R)-indan-1-yl-quinoline-2,5-diamine] | 33 nM |
| COc1ccc(C(=O)c2cccc3nc(N[C@@H]4CCc5ccccc54)ccc23)cc1 [Example 93, [2-((R)-Indan-1-ylamino)-(4-methoxy-phenyl)-quinolin-5-yl]-methanone] | 15.8 nM |
| COc1ccc(C(=NO)c2cccc3nc(N[C@@H]4CCc5ccccc54)ccc23)cc1 [Example 95, [2-((R)-Indan-1-ylamino)-(4-methoxy-phenyl)-quinolin-5-yl]-methanone oxime] | 4.11 nM |
| Cc1ccc(C(=O)c2cccc3nc(N[C@@H]4CCc5ccccc54)ccc23)cc1 [Example 97, [2-((R)-Indan-1-ylamino)-(4-methyl-phenyl)-quinolin-5-yl]-methanone] | 37.4 nM |
| CON=C(c1ccc(C)cc1)c1cccc2nc(N[C@@H]3CCc4ccccc43)ccc12 [Example 98, [2-((R)-Indan-1-ylamino)-(4-methyl-phenyl)-quinolin-5-yl]-methanone O-methyl-oxime] | 49.8 nM |
| Cc1ccc(C(=NO)c2cccc3nc(N[C@@H]4CCc5ccccc54)ccc23)cc1 [Example 99, [2-((R)-Indan-1-ylamino)-(4-methyl-phenyl)-quinolin-5-yl]-methanone oxime] | 1.8 nM |
